Source: article PMC6753126, “Bidirectional transport of 2-chloroadenosine by equilibrative nucleoside transporter 4 (hENT4): Evidence for allosteric kinetics at acidic pH” (Scientific Reports, 2019)
Where two headings read alike, the source gives them in different places.

How the values were obtained:
[1] = target: T1, equilibrative nucleoside transporter 4 (hENT4) (Homo sapiens, UniProt Q7RTT9); assay: radiolabelled substrate uptake kinetics (Km, pH […] high-affinity component) and efflux in PK15-hENT4 cells; assay type: cell-based
T1 construct: gene SLC29A4
T1 sequence (Q7RTT9 1-530): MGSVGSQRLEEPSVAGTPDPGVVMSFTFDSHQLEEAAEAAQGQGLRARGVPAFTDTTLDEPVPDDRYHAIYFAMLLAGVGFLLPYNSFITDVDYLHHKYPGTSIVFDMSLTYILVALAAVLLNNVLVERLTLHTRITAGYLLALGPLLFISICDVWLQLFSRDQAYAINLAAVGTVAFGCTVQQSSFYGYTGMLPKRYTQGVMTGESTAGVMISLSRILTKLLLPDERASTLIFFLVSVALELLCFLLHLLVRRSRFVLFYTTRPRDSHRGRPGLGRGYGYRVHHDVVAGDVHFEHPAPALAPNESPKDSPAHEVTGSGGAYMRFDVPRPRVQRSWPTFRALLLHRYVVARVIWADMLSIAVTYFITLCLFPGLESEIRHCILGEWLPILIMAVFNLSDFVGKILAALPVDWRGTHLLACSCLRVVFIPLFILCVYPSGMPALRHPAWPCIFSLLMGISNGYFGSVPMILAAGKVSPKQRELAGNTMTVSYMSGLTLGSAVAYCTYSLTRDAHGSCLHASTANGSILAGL

[2] = target: T1, equilibrative nucleoside transporter 4 (hENT4); assay: inhibition of [3H]2-chloroadenosine uptake at pH […] in PK15-hENT4 cells; assay type: cell-based

For `Nc1nc(Cl)nc2c1ncn2[C@@H]1O[C@H](CO)[C@@H](O)[C@H]1O` [2-CADO, 2-chloroadenosine], the Km [1] was ~50 µM.
Work on `CCN1/C(=C/c2ccc3ccccc3[n+]2CC)C=Cc2ccccc21` [D22, decynium 22] yielded an IC50 ([2]; read-out: IC50) of ~2.3 µM.
With `C[n+]1ccc(-c2ccccc2)cc1` [MPP+, MPP^+] the IC50 [2] was 220 µM.
For TC-T6000, the IC50 ([2]; read-out: IC50) was ~2.3 µM.
